Laboratory results as given in patent US10034879B2, “Substituted benzaldehyde compounds and methods for their use in increasing tissue oxygenation” (Global Blood Therapeutics, Inc., priority 2011, dated 2018).
Where “and” joins values, the source holds several entries; their conditions need not be identical. Equal entries are not always repeated. Where two headings read alike, the source gives them in different places.

Experiments:
purified HBS = target: T1, purified HBS (Homo sapiens, UniProt P68871+P69905, E7V); assay: HbS polymerization assay (delay time); format: biochemical; details: 50 μM purified HBS, 1.8 M potassium phosphate pH 7.4
T1 construct: HbS is purified by the CRO VIRUSYS, from blood obtained from homozygous sickle cell patients; tissue VIRUSYS (CRO that did the purification); host or cells: blood of homozygous sickle cell patients
Method: Polymerization assays are carried out in vitro using purified HBS exchanged into 1.8 M potassium phosphate buffer at pH 7.4. Using a slightly modified protocol (Antonini and Brunori, 1971), HbS is purified by the CRO VIRUSYS, from blood obtained from homozygous sickle cell patients through the Hemoglobinopathy Center at Children's Hospital Oakland Research Institute (CHORI) with Institutional Review Board approval. Compounds are prepared in 100% DMSO and a desired amount is added to 50 μM of purified HBS at a final DMSO concentration of 0.3%. Final potassium phosphate concentration is adjusted to 1.8 M using a combination of 2.5 M potassium phosphate stock solution and water at pH 7.4. The reaction mixture is incubated for an hour at 37° C. and then transferred into a 24-well plate for deoxygenation in a glove box containing 99.5% nitrogen and 0.5% oxygen. The 24-well plate is not covered and incubated at 4° C. on a plate cooler inside the glove box for one and a half hours. Fifty μL of the reaction mixture is transferred into a 96-well plate and the absorbance at 700 nm is measured every minute for one hour at 37° C. in a plate reader located inside the glove box. A plot of the absorbance against time is fitted using a Boltzman sigmoidal fit and the delay time (from zero to time at half Vmax) is measured. To compare and rank compounds, delay times are expressed as percent delay (% DT), which is defined as the difference in delay times for HBS/compound and HBS alone multiplied by 100 and divided by the delay time for HBS alone.
Compounds listed below have been tested in the polymerization assay. Activity ranges are defined by the number of dagger (†) symbols indicated. † denotes activity ≤40% but ≤80%; †† denotes activity >80% but ≤120%; ††† denotes activity >120% but ≤140%; †††† denotes activity >160%.

[1] = Pharmacokinetic oral study in rat; format: in vivo, SD Rats; details: for AUClast ratio / Cmax ratio: PO, 100 mg/kg vs 44 mg/kg; for Cmax / Tmax: Sprague-Dawley
Method: (§1) Sprague Dawley rats were treated with 7.8 mg/Kg of Compound 43 dissolved in 10% DMA:[…]:16% ca vitron. At specified time points 10 uL of whole blood/plasma was removed from rats and treated with 490 ul pH 3 buffer+500 uL ACN/IS, then shaken for 1 hour, centrifuged for 10 minutes at […] at 4 C. The supernatant was transferred to a filter plate and centrifuged at 2000 rpm for 1 minute at 4 C. The samples were then analyzed by LC-MS/MS monitoring parent aldehyde.
SD Rats were treated by gavage with 44 mg/kg and 100 mg/kg dissolved in 10% DMA:90% PEG. At specified time points blood was taken and worked up as described above in the IV Study.

HbS = target: T2, HbS (Homo sapiens, UniProt P68871+P69905, E7V); assay: Whole blood assay, oxygen equilibrium curves of whole blood from sickle cell patients; format: cell-based; details: hematocrit 20%, compound at 1000 μM
T2 construct: Oxygen Equilibrium Curves (OEC) of whole blood before and after treatment; endogenous in cells; host or cells: whole blood (red blood cells) of homozygous sickle cell patients
Method: Oxygen Equilibrium Curves (OEC) of whole blood before and after treatment with different concentrations of substituted benzaldehyde compounds were performed as follows using a HEMOX analyzer (TCS Scientific, New Hope, Pa.). Blood samples from homozygous sickle cell patients were obtained though the Hemoglobinopathy Center at Children's Hospital Oakland Research Institute (CHORI) with Institutional Review Board approval. The hematocrit was adjusted to 20% using autologous plasma and the blood samples were incubated for 1 hour at 37° C. in absence or presence of compounds. 100 μl of these samples were added to 5 mL of Hemox buffer (30 mM TES, 130 mM NaCl, 5 mM KCl, pH=7.4) at 37° C. and then transferred to the Hemox sample chamber. The samples were saturated with oxygen by flushing with compressed air for 10 minutes. The samples were then flushed with pure nitrogen and the respective absorbances of oxy- and deoxy-Hb are recorded as a function of the solution pO2. The oxygen equilibrium data were then fitted to the Hill Model to obtain values for p50. The deoxygenation curves for both whole blood alone (control) and whole blood in the presence of the compound were collected with the TCS software.
Table 5 below lists the delta p50% values where + indicates a delta p50% of between 0 and 29, ++ indicates a delta p50% of between 30 and 50, and +++ indicates a delta p50% of 50 or greater. The compounds in Table 2 were tested at 1000 μM.

[2] = Pharmacokinetic I.V. study in rat; format: in vivo, Sprague Dawley rats; details: 7.8 mpk IV; for Vd: read-out: Vss; for half-life: read-out: t½ beta
Method: as §1

[3] = whole blood, PO 44 mg/kg, Blood
[4] = whole blood, PO 100 mg/kg, Blood
[5] = HCl salt, 0 min, animals A, B, C
[6] = HCl salt, 5 min, animals A, B, C, 7.8 mg/kg
[7] = HCl salt, 15 min, animals A, B, C, 7.8 mg/kg
[8] = HCl salt, 30 min, animals A, B, C, 7.8 mg/kg
[9] = HCl salt, 60 min, animals A, B, C, 7.8 mg/kg
[10] = HCl salt, 120 min, animals A, B, C, 7.8 mg/kg
[11] = HCl salt, 240 min, animals A, B, C, 7.8 mg/kg
[12] = HCl salt, 1440 min, animals A, B, C, 7.8 mg/kg
[13] = Sprague-Dawley, 7.8 mg/kg, Plasma
[14] = Sprague-Dawley, whole blood, 7.8 mg/kg, Blood

% delta Delay (purified HBS): †† (†† denotes activity >80% but ≤120%)
AUClast ([1]; PO 44 mg/kg, Blood): 395638.27 µmol·min/L
AUClast ([1]; PO 44 mg/kg, Plasma): 12517.54 µmol·min/L
AUClast ([1]; PO 100 mg/kg, Blood): 1384101.11 µmol·min/L
AUClast ([1]; PO 100 mg/kg, Plasma): 52836.17 µmol·min/L
AUClast ratio ([1]; Blood): 3.50
Cmax ratio ([1]; Blood): 2.88
AUClast ratio ([1]; Plasma): 4.22
Cmax ratio ([1]; Plasma): 3.01
Cmax ([1]; PO 44 mg/kg, Plasma): 14.8 µM
Tmax ([1]; PO 44 mg/kg, Plasma): 3.33 h
Cmax ([1]; PO 100 mg/kg, Plasma): 44.5 µM
Tmax ([1]; PO 100 mg/kg, Plasma): 11.3 h
Cmax [1, 3]: 381 µM
Tmax [1, 3]: 5.33 h
Cmax [1, 4]: 1100 µM
Tmax [1, 4]: 12 h
AUClast ([2]; Blood): 215846.3 µmol·min/L
blood conc [2, 5]: BLLOQ
plasma conc [2, 5]: BLLOQ
blood conc [2, 6]: 246 µM and 281 µM
plasma conc [2, 6]: 8.68 µM and 7.44 µM
blood conc [2, 7]: 341 µM and 285 µM
plasma conc [2, 7]: 8.42 µM and 7.16 µM
blood conc [2, 8]: 333 µM and 292 µM
plasma conc [2, 8]: 7.1 µM
blood conc [2, 9]: 203 µM and 285 µM
plasma conc [2, 9]: 7.52 µM and 7.22 µM
blood conc [2, 10]: 274 µM and 280 µM
plasma conc [2, 10]: 6.02 µM and 5.22 µM
blood conc [2, 11]: 225 µM and 259 µM
plasma conc [2, 11]: 5.24 µM and 5.88 µM
plasma conc ([2]; HCl salt, 480 min, animals A, B, C, 7.8 mg/kg): 2.66 µM and 3.15 µM
blood conc [2, 12]: 85 µM and 70.8 µM
plasma conc [2, 12]: 1.38 µM and 1.51 µM
AUClast ([2]; Plasma): 4114.8 µmol·min/L
clearance [2, 13]: 0.267 L/h/kg
Vd [2, 13]: 4.11 L/kg
half-life [2, 13]: 10.3 h
concentration at 5 min ([2]; Sprague-Dawley, plasma, iv, 7.8 mg/kg, HCl salt, 5 min, animals A, B, C, read-out: plasma conc): 7.56 µM
concentration at 15 min ([2]; Sprague-Dawley, plasma, iv, 7.8 mg/kg, HCl salt, 15 min, animals A, B, C, read-out: plasma conc): 8.38 µM
concentration at 30 min ([2]; Sprague-Dawley, plasma, iv, 7.8 mg/kg, HCl salt, 30 min, animals A, B, C, read-out: plasma conc): 8.66 µM
concentration at 60 min ([2]; Sprague-Dawley, plasma, iv, 7.8 mg/kg, HCl salt, 60 min, animals A, B, C, read-out: plasma conc): 6.12 µM
concentration at 120 min ([2]; Sprague-Dawley, plasma, iv, 7.8 mg/kg, HCl salt, 120 min, animals A, B, C, read-out: plasma conc): 3.92 µM
concentration at 240 min ([2]; Sprague-Dawley, plasma, iv, 7.8 mg/kg, HCl salt, 240 min, animals A, B, C, read-out: plasma conc): 3.72 µM
concentration at 480 min ([2]; Sprague-Dawley, plasma, iv, 7.8 mg/kg, HCl salt, 480 min, animals A, B, C, read-out: plasma conc): 2.06 µM
concentration at 1440 min ([2]; Sprague-Dawley, plasma, iv, 7.8 mg/kg, HCl salt, 1440 min, animals A, B, C, read-out: plasma conc): 1.07 µM
clearance [2, 14]: 0.0048 L/h/kg
Vd [2, 14]: 0.09 L/kg
half-life [2, 14]: 12.5 h
concentration at 5 min ([2]; Sprague-Dawley, whole blood, iv, 7.8 mg/kg, HCl salt, 5 min, animals A, B, C, read-out: blood conc): 259 µM
concentration at 15 min ([2]; Sprague-Dawley, whole blood, iv, 7.8 mg/kg, HCl salt, 15 min, animals A, B, C, read-out: blood conc): 287 µM
concentration at 30 min ([2]; Sprague-Dawley, whole blood, iv, 7.8 mg/kg, HCl salt, 30 min, animals A, B, C, read-out: blood conc): 283 µM
concentration at 60 min ([2]; Sprague-Dawley, whole blood, iv, 7.8 mg/kg, HCl salt, 60 min, animals A, B, C, read-out: blood conc): 256 µM
concentration at 120 min ([2]; Sprague-Dawley, whole blood, iv, 7.8 mg/kg, HCl salt, 120 min, animals A, B, C, read-out: blood conc): 263 µM
concentration at 240 min ([2]; Sprague-Dawley, whole blood, iv, 7.8 mg/kg, HCl salt, 240 min, animals A, B, C, read-out: blood conc): 248 µM
concentration at 1440 min ([2]; Sprague-Dawley, whole blood, iv, 7.8 mg/kg, HCl salt, 1440 min, animals A, B, C, read-out: blood conc): 81.1 µM
SMILES: CC(C)n1nccc1-c1ncccc1COc1cccc(O)c1C=O [Compound 43, 2-hydroxy-6-((2-(1-isopropyl-1H-pyrazol-5-yl)pyridin-3-yl)methoxy)benzaldehyde]
delta p50% (HbS): +++ (+++ indicates a delta p50% of 50 or greater)
